Source: ChEMBL document CHEMBL4392879, “Secondary Metabolites of Onygenales Fungi Exemplified by Aioliomyces pyridodomos” (J Nat Prod, 2019)
Values after ≈ are worked out from the molar mass of the structure shown.

System: Histoplasma capsulatum
Assay: Antifungal activity against Histoplasma capsulatum G217B after 10 to 14 days by microscopic method
Assay type: functional, organism-based

First: C/C=C/C=C/c1c(CC=C(C)C)cc(CC=C(C)C)c(O)c1CO
Second: C/C=C/C=C/c1c(CC=C(C)C)cc2c(c1CO)OC(C)(C)C(O)C2=O (stereo unspecified)
The IC50 of the first is 2-fold lower: 8 µg/mL (≈ 24.5 µM) for the first, 16 µg/mL (≈ 44.9 µM) for the second.

Compared with `CCC(C)n1ncn(-c2ccc(N3CCN(c4ccc(OCC5COC(Cn6cncn6)(c6ccc(Cl)cc6Cl)O5)cc4)CC3)cc2)c1=O` (stereo unspecified) [ITRACONAZOLE], `C[C@@H]1[C@H](O)[C@@H](C)/C=C/C=C/C=C/C=C/C=C/C=C/C=C/[C@H](O[C@@H]2O[C@H](C)[C@@H](O)[C@H](N)[C@@H]2O)C[C@@H]2O[C@](O)(C[C@@H](O)C[C@@H](O)[C@H](O)CC[C@@H](O)C[C@@H](O)CC(=O)O[C@H]1C)C[C@H](O)[C@H]2C(=O)O` [AMPHOTERICIN B] is 500-fold higher in IC50: 0.001 µg/mL (≈ 0.00142 µM) for the first, 0.5 µg/mL (≈ 0.541 µM) for the second.

Compared with `CC(C)=CCc1cc2c(c3c1[C@@H]1C[C@H](C3=O)[C@@H]1C)OC(C)(C)[C@H](O)C2=O`, `CC(C)=CCc1cc2c(c3c1[C@@H]1C[C@H](C3=O)[C@@H]1C)OC(C)(C)[C@@H](O)C2=O` is 2-fold lower in IC50: 64 µg/mL (≈ 181 µM) for the first, 32 µg/mL (≈ 90.3 µM) for the second.
